Where two headings read alike, the source gives them in different places.
Assays:
[1] = test system: mouse LINE-1; assay: Mouse LINE-1 retrotransposition assay (dual luciferase pYX016 reporter, HeLa cells); assay type: cell-based
Procedure: Elvucitabine was obtained by custom synthesis. […] HeLa cervical cancer cells were cultivated at 37° C. in a humidified 5% CO2 incubator in Dulbecco's Modified Eagle's Medium (DMEM)-high glucose, with 4500 mg/L glucose, L-glutamine, sodium pyruvate and sodium bicarbonate (Sigma), supplemented with 10% of heat inactivated fetal bovine serum (Thermo Fisher). Assays were performed as described in Xie et al., 2011^151 with several modifications. The reporter assay was performed in 96 well white Optical bottom plates. 6000 HeLa cells were seeded in each well 24 hours prior transfection and compound treatment. All compounds were resuspended in DMSO. Stock solution concentrations varied from 50 mM to 1.25 mM depending of the solubility of the compound. Serial dilutions (1:3) were prepared in DMSO. Ten different concentrations of each compound were tested in triplicate. Medium containing different concentrations of the compounds were prepared by adding 2 μL of the compound dilution to 1 mL of the culture medium. The final concentration of DMSO in the medium was 0.2%. FuGENE® HD transfection reagent (Promega) was used to transfect the plasmid pYX016 into the cells. The transfection mix was prepared in OpiMEM (Thermo Fisher) using a reagent to DNA ratio of 3.5:1 according to manufacturer's instructions. Culture medium was removed from the cells and discarded. The transfection mix (5 μL) was mixed with the compound containing medium (100 μL/well) and this was added onto the cells of each well. Cells were incubated for 48H at 37° C./5% CO2. Luciferase reporter activity was quantified with the Dual-Luciferase® Reporter Assay System (Promega) according to manufacturer's instructions for multiwell plates with the following modification: Cells were lysed directly on the multiwell plate with 30 μL of the passive lysis buffer (PLB) for 20 min at room temperature, with gentle shaking to ensure complete cell lysis (instead of 20 μL of PLB for 15 min). Firefly and Renilla luciferase signals were measured using a SpectraMax i3x Multi-Mode Microplate Reader. […] Relative L1 activity was calculated as Firefly/Renilla *10,000. […] The experiment was performed twice, independently.

[2] = Table 13 Comparative Studies; cited from earlier work
[3] = test system: human LINE-1; assay: Human LINE-1 retrotransposition assay (dual luciferase pYX017 reporter, HeLa cells, Table 11); assay type: cell-based
Procedure: Assays were performed as described in Xie et al., 2011^151 with several modifications. The reporter assay was performed in 96 well white Optical bottom plates. 6000 HeLa cells were seeded in each well 24 hours prior transfection and compound treatment. All compounds were resuspended in DMSO. Stock solution concentrations varied from 50 mM to 1.25 mM depending of the solubility of the compound. Serial dilutions (1:3) were prepared in DMSO. Ten different concentrations of each compound were tested in triplicate. Medium containing different concentrations of the compounds were prepared by adding 2 μL of the compound dilution to 1 mL of the culture medium. The final concentration of DMSO in the medium was 0.2%. FuGENE® HD transfection reagent (Promega) was used to transfect the plasmid pYX016 into the cells. The transfection mix was prepared in OpiMEM (Thermo Fisher) using a reagent to DNA ratio of 3.5:1 according to manufacturer's instructions. Culture medium was removed from the cells and discarded. The transfection mix (5 μL) was mixed with the compound containing medium (100 μL/well) and this was added onto the cells of each well. Cells were incubated for 48H at 37° C./5% CO2. Luciferase reporter activity was quantified with the Dual-Luciferase® Reporter Assay System (Promega) according to manufacturer's instructions for multiwell plates with the following modification: Cells were lysed directly on the multiwell plate with 30 μL of the passive lysis buffer (PLB) for 20 min at room temperature, with gentle shaking to ensure complete cell lysis (instead of 20 μL of PLB for 15 min). Firefly and Renilla luciferase signals were measured using a SpectraMax i3x Multi-Mode Microplate Reader. […] Relative L1 activity was calculated as Firefly/Renilla *10,000. […] The experiment was performed twice, independently. […] Because the human construct yields a lower signal, compounds were incubated with cells for 72 hours instead of 48 hours, and cells were seeded at a density of 2000/well instead of 6000/well. In addition, the transfection reagent to DNA ratio was 2:1 instead of 3.5:1.

[4] = assay type: in vivo; conditions: mice, 1.5, 2.0, 2.5 mg/ml in drinking water from 18 to 24 months
Procedure: C57BL/6J mice of both sexes were obtained from the NIA Aged Rodent Colonies^61 at 5 and 18 months of age. The 5-month old animals were sacrificed after a short (1 week) acclimatization period, a variety of tissues were harvested, snap frozen in LN2 and stored at −80° C. The 18-month old animals were housed until they reached a desired age. Mice were housed in a specific pathogen-free AAALAC-certified barrier facility. Cages, bedding (Sani-chip hardwood bedding) and food (Purina Lab Chow 5010) were sterilized by autoclaving. Food and water (also sterilized) were provided ad libitum. A light-dark cycle of 12 hours was used (7 AM On, 7 PM Off). Temperature was maintained at 70° F., and humidity at 50%. All animals were observed daily and weighed once per week. In a pilot experiment, three cohorts of 10 animals each were treated with 3TC dissolved in drinking water (1.5 mg/ml, 2.0 mg/ml, 2.5 mg/ml) continuously from 18 months until sacrifice at 24 months. The fourth (control) cohort was provided with the same water without drug. […] Once during the experiment (at 20 months of age) the animals were subjected to a single tail bleed of approximately 70 μL. The collected plasma was shipped to the University of North Carolina CFAR Clinical Pharmacology and Analytical Chemistry Core for analysis of 3TC. For the 2 mg/mL cohort the concentration of 3TC in plasma averaged 7.2 μM. […]

[5] = 300 mg per day; cited from earlier work
[6] = pYX016, 48 H post-transfection, read-out: Mouse L1 activity inhibition IC50, Exp. 1
[7] = pYX016, 48 H post-transfection, read-out: Mouse L1 activity inhibition IC50, Exp. 2
[8] = pYX016, 48 H, n = 2, read-out: Mouse L1 activity inhibition IC50, Average

Row | SMILES | IC50 [1, 6] [µM] | IC50 [1, 7] [µM] | IC50 [1, 8] [µM] | huCSF/Plasma [2] | IC50 ([3]; pYX017, 72 H post-transfection, read-out: Human L1 activity inhibition IC50, Exp. 1) [µM] | IC50 ([3]; pYX017, 72 H post-transfection, read-out: Human L1 activity inhibition IC50, Exp. 2) [µM] | IC50 ([3]; pYX017, 72 H, n = 2, read-out: Human L1 activity inhibition IC50, Average) [µM] | IC50 ([3]; read-out: human L1 inhibition IC50) [µM] | behavior, weight, or survival versus control cohort [4] | 3TC in plasma at human HIV therapeutic dose [5] [µM]
1 | Nc1nc(=O)n([C@@H]2CS[C@H](CO)O2)cc1F [Emtricitabine] | 0.64 | 0.451 | 0.546 | 0.35 | – | – | – | – | – | –
2 | Nc1ccn([C@@H]2CS[C@H](CO)O2)c(=O)n1 [Lamivudine] | 0.958 | 0.78 | 0.869 | – | 0.793 | 0.867 | 0.83 | > 0.8 | No significant differences in behavior, weight, or survival | 5 to 8

Source: patent US12246022B2, “Compositions and methods for treating, preventing or reversing age associated inflammation and disorders” (BROWN UNIVERSITY, priority 2019, dated 2025)
